Results: paper PMC9719519, “Non-classical ferroptosis inhibition by a small molecule targeting PHB2” (Nature Communications, 2022)

Target: prohibitin 2 (PHB2) (Homo sapiens, UniProt Q99623)
Assay: diazirine photoaffinity labelling (UV […] nm) with pull-down/western blot; DARTS
Assay type: cell-based
Design: endogenous PHB2 in ES-2 cells

Chain of prohibitin 2 (PHB2) (Q99623 2-299): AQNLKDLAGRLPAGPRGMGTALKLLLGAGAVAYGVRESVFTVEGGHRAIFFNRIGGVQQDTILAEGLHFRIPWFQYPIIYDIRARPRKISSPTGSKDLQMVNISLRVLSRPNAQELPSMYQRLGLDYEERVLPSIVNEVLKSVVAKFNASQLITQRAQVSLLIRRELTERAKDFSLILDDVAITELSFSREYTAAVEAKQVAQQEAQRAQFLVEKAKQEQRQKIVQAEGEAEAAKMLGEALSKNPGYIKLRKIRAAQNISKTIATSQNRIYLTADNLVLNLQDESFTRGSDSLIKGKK

## C#CCCC1(CC(=O)N2CCC(n3cc(-c4cn5cc(-c6ccccc6)nc5c(C5=CCOCC5)n4)cn3)CC2)N=N1 [YL-939-1]
  diazirine photoaffinity labelling (UV 365 nm) with pull-down/western blot; DARTS: revealed that only PHB2 protein could be pulled down by the probe (Fig. 4D)
